Reference: PMC8092876, “A Leucyl-tRNA Synthetase Inhibitor with Broad-Spectrum Antimycobacterial Activity” (Antimicrobial Agents and Chemotherapy, 2021)
In brackets after ≈: the same amount, converted by molar mass.

How the values were obtained:
[1] = Mouse pharmacokinetics, intravenous administration; type: in vivo
Method: For pharmacokinetic studies, CD-1 male mice (22 to 25 g) were used for intravenous route and C57BL/6 female mice (18 to 20 g) were used for oral route. All animal studies were ethically reviewed and carried out in accordance with European Directive 2010/63/EU and the GSK policy on the care, welfare, and treatment of animals.
EC/11770 was administered by intravenous route at 1 mg/kg single dose in saline and by oral gavage at 1 mg/kg and 10 mg/kg single doses in 1% methyl cellulose (1% MC). Aliquots of 20 μl of blood were taken from the lateral tail vein by puncture from each mouse (n = 3 per route and dose) at 5, 15, and 30 min 1, 2, 4, 6, 8, and 24 h postdose for intravenous route and at 15, 30, and 45 min 1, 2, 4, 6, 8, and 24 h postdose for oral route. The blood aliquots were mixed with 40 μl of water and stored at −80°C prior to analysis. The samples were processed by protein precipitation: aliquots of 20 μl were mixed with acetonitrile/methanol (80:20 vol/vol) and then filtered in 0.45 μm well-plates (hydrophobic polytetrafluorethylene [PTFE], Millipore). The filtrates were analyzed by UPLC-MS/MS for the establishment of compound concentration. The ultraperformance liquid chromatography (UPLC)-MS/MS system included a UPLC Acquity (Waters) and an API4000 mass spec. (AB Sciex). A volume of 7.5 μl of sample was injected into the system, with an UPLC solvent gradient of 2 min and with a positive multiple reaction monitoring (MRM) mass detection mode.
Pharmacokinetic analysis was performed by noncompartmental data analysis (NCA) with Phoenix WinNonlin 6.3 (Pharsight, Certara L.P), and supplementary analysis was performed with GraphPad Prism 6 (GraphPad Software, Inc.).

M. abscessus Bamboo [2] = assay: MIC assay in 96-well plate format; type: cell-based, M. abscessus subsp. abscessus; settings: Mycobacteroides abscessus
[3] = tested on: M. abscessus subsp. abscessus ATCC 19977; assay: MIC assay in 96-well plate format; type: cell-based; settings: Mycobacteroides abscessus, ATCC19977; M. abscessus subsp. abscessus ATCC 19977, culture collection reference strain
M. abscessus Bamboo [4] = assay: MIC and MBC determination in culture tubes (planktonic)
Method: M. abscessus Bamboo culture was grown to mid-log-phase (OD600 = 0.4 to 0.6) and diluted to OD600 = 0.1 (1 × 10^7 CFU/ml). Aliquots of 1.2 ml of the resulting bacteria suspension were transferred into 14 ml vented, round-bottom tubes (Thermo Fisher 150268, Rochester, NY, United States). A 10-point 2-fold dilution series of the compound was prepared, starting at 100 times the desired highest concentration. The compound concentration range tested was 100 to 0.195 μM. For each drug concentration tested, 12 μl of drug stock was added to two tubes and vortexed. Aliquots of 12 μl of DMSO were added to two tubes as the untreated controls (1% final DMSO concentration). From each tube, 200 μl was transferred to wells on a 96-well plate and the OD600 was measured using a Tecan Infinite M200 plate reader (day 0 reading). The tubes (1 ml final volume) were incubated on a tilted rack at 37°C on an orbital shaker at 220 rpm. On day 2, tubes were vortexed before transferring 200 μl onto a 96-well plate to measure the OD600 again (day 2 reading). To determine the MIC, day 0 and day 2 OD600 values were analyzed as previously described for MIC determination in 96-well plate format. To determine the MBC, CFU measurement was done for the OD600 = 0.1 bacteria suspension on day 0 and for each tube on day 2. Specifically, serial 10-fold dilutions were prepared in phosphate-buffered saline (Thermo Fisher 10010023) containing 0.025% Tween 80 (PBS/Tween 80) and plated on 7H10 agar. The MBC was defined as the lowest concentration of drug that reduced the CFU/ml value by 10-fold relative to the day 0 CFU/ml value.

[5] = tested on: M. abscessus subsp. abscessus K21; assay: M. abscessus mouse infection model; type: in vivo; settings: NOD SCID mice, intranasal infection, 10 mg/kg orally once daily for 10 days, day 11
Method: In vivo efficacy determinations were carried out as described previously, using 8-week-old female NOD.CB17-Prkdc^scid/NCrCrl (NOD SCID) mice (Charles River Laboratories) and the M. abscessus subsp. abscessus K21 strain ([38]). Briefly, anesthetized animals were infected by intranasal delivery of ∼10^6 CFU of M. abscessus subsp. abscessus K21. Acute infection was achieved within 1 day. Drugs or the vehicle control were administered to NOD SCID mice once daily for 10 consecutive days by oral gavage, starting from 1 day postinfection. Clarithromycin was formulated in 0.4% methyl cellulose-sterile water and administered at a dose of 250 mg/kg. EC/11770 was formulated in 0.4% methyl cellulose-sterile water and administered at 10 mg/kg. All mice were euthanized 24 h after the last dose (11 days postinfection), and their lungs and spleen were aseptically removed prior to homogenization. The bacterial load in these organs was determined by plating serial dilutions of the organ homogenates onto Middlebrook 7H11 agar (BD Difco) supplemented with 0.2% (vol/vol) glycerol and 10% (vol/vol) oleic acid-albumin-dextrose-catalase (OADC). The agar plates were incubated for 5 days at 37°C prior to counting of colonies. […]

[6] = tested on: M. abscessus Bamboo biofilms; assay: Biofilm growth inhibition assay (biofilm MIC and MBC); type: cell-based, M. abscessus subsp. abscessus; settings: Mycobacteroides abscessus
Method: The biofilm growth inhibition assay was performed as previously described ([40]). Innovotech MBEC 96-well biofilm assay plates (Innovotech 19111, Edmonton, AB, Canada) were used, and the supplier’s manual was followed with minor modifications. Mid-log-phase M. abscessus Bamboo precultures (OD600 = 0.4 to 0.6) were spun down at 3200 × g for 10 min at 25°C and washed with 7H9 medium without Tween 80 (7H9nt). Bacteria were resuspended into 25 ml 7H9nt to an OD600 of 0.0125 (1.0 × 10^6 CFU/ml). […] The lids with the pegs were transferred to a new MBEC multititer plate containing 150 μl of fresh 7H9nt medium per well without bacteria (0 h time point). After that, the pegs with growing biofilm were transferred once a day to a new multititer plate containing fresh 7H9nt medium. To measure growth of the biofilm formed on the peg, the pegs were washed in 200 μl of 7H9nt medium before they were aseptically removed and placed in 1.7 ml microcentrifuge tubes (VWR 87003-294, Rador, PA, United States) containing 500 μl PBS/Tween 80. The microcentrifuge tubes were vigorously vortexed at 2,000 rpm for 90 s at 25°C to detach the bacteria from the pegs before samples were serially diluted and plated for the determination of CFU/peg. […] The average drug-free biofilm growth was calculated by subtracting the average 24 h CFU/peg value from the average 72 h CFU/peg value for the untreated control pegs. The biofilm MIC was defined as the lowest drug concentration that reduced the CFU/peg by 90% relative to that of the average drug-free biofilm growth.

[7] = tested on: M. abscessus Bamboo RM3 (LeuS V417M); assay: microbe, parasite or virus in culture; type: cell-based; settings: RM3, batch 1, LeuS V417M
[8] = tested on: M. abscessus Bamboo RM4 (LeuS T327R); assay: microbe, parasite or virus in culture; type: cell-based; settings: Mycobacteroides abscessus
[9] = tested on: M. abscessus Bamboo RM1 (LeuS A428P); assay: microbe, parasite or virus in culture; type: cell-based; settings: Mycobacteroides abscessus
[10] = TB efficacy studies; stated as known, no reference given; cited from earlier work
M. avium 11 = assay: MIC assay in 96-well plate format; type: cell-based, M. avium subsp. hominissuis; settings: Mycobacterium avium, 96 h; M. avium 11, 7H9, 4 days; read-out: MIC

CC(C)(O)COc1ccc(Br)c2c1B(O)O[C@@H]2CN [EC/11770]
half-life ([1]; male, CD-1, whole blood, mouse, intravenous 1 mg/kg, average (SD)): 5.3 h
Vd ([1]; male, CD-1, whole blood, mouse, intravenous 1 mg/kg, average (SD), read-out: Vss): 2.4 L/kg
AUC(0-inf) ([1]; male, CD-1, mouse, intravenous 1 mg/kg, whole blood, average (SD)): 3340 ng·h/mL
in vivo clearance as share of liver blood flow in mice ([1]; mouse, intravenous 1 mg/kg, liver blood flow 90 to 126 ml/min/kg): approximately 5%
clearance ([1]; whole blood, mouse (CD-1 male), intravenous 1 mg/kg in saline, average (SD), read-out: In vivo CL): 5 mL/min/kg
MIC (M. abscessus Bamboo [2]): 0.9 µM (≈ 0.297 µg/mL)
MIC (M. abscessus Bamboo [2]; 72 h, M. abscessus Bamboo, 7H9, 3 days, read-out: MIC): 1.2 µM (≈ 0.396 µg/mL)
MIC (M. abscessus Bamboo [2]; 72 h, M. abscessus Bamboo, CAMH broth, 3 days, read-out: MIC): 0.7 µM (≈ 0.231 µg/mL)
MIC [3]: 0.7 µM (≈ 0.231 µg/mL)
MBC (M. abscessus Bamboo [4]; Mycobacteroides abscessus): > 100 µM
MIC (M. abscessus Bamboo [4]; Mycobacteroides abscessus, 48 h): 3 µM (≈ 0.99 µg/mL)
MIC (M. abscessus Bamboo [4]; planktonic M. abscessus Bamboo in culture tubes, day 2): 3.0 µM (≈ 0.99 µg/mL)
MBC (M. abscessus Bamboo [4]; planktonic M. abscessus Bamboo in culture tubes, day 2, 10-fold CFU/ml reduction vs day 0): >100 µM
reduction in lung CFU [5]: 1.5 log
MBC ([6]; 10-fold CFU/peg reduction vs 24 h): 50 µM (≈ 16.5 µg/mL)
MIC ([6]; 48 h with drug, 90% reduction of CFU/peg growth): 3.1 µM (≈ 1.02 µg/mL)
MIC ([7]; Mycobacteroides abscessus): 60 to 75 µM (≈ 19.8 to 24.7 µg/mL)
MIC [7]: 62 µM (≈ 20.5 µg/mL)
MIC [8]: > 100 µM
MIC [9]: > 100 µM
tolerated dose [10]: up to 100 mg/kg
MIC (M. avium 11): 4 µM (≈ 1.32 µg/mL)
